In the supplement of paper PMC10307832:

Legend:
Assay in all cases: relative viability (nuclei count vs DMSO), 5 days (fraction); higher = more cells survive
[1] = compound: O=C(O)c1ccc2c(c1)nc(Nc1cccc(Cl)c1)c1ccncc12 [Silmitasertib] + CC(C)C[C@H](NC(=O)[C@H](Cc1ccccc1)NC(=O)c1cnccn1)B(O)O [Bortezomib] (partner 0.002 µM)
Outline: (§1)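 Lung cancer cell lines in 1536-well plates were dosed by pin tool the day after seeding, either with one drug alone or with a fixed anchor-drug dose plus five library-drug doses (not always all listed) in √10 steps. After 5 days, cells were fixed and their nuclei stained in one step (final 0.05% Triton X-100, 1% formaldehyde, 1 ug/ml Hoechst), then counted on 4× images. Relative viability is the nuclei count in treated wells divided by that in vehicle wells. Values are medians of duplicate plates.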

[2] = compound: O=C(O)c1ccc2c(c1)nc(Nc1cccc(Cl)c1)c1ccncc12 [Silmitasertib] + CC1(C)CCC(c2ccc(Cl)cc2)=C(CN2CCN(c3ccc(C(=O)NS(=O)(=O)c4ccc(N[C@H](CCN5CCOCC5)CSc5ccccc5)c(S(=O)(=O)C(F)(F)F)c4)cc3)CC2)C1 [Navitoclax] (partner 0.5 µM)
Outline: as §1

[3] = compound: O=C(O)c1ccc2c(c1)nc(Nc1cccc(Cl)c1)c1ccncc12 [Silmitasertib] + COc1cccc2cc(-c3nc([C@H]4CC[C@H](C(=O)O)CC4)n4ncnc(N)c34)[nH]c12 [OSI-027] (partner 0.5 µM)
Outline: as §1

[4] = compound: O=C(O)c1ccc2c(c1)nc(Nc1cccc(Cl)c1)c1ccncc12 [Silmitasertib] + CS(=O)(=O)CCNCc1ccc(-c2ccc3ncnc(Nc4ccc(OCc5cccc(F)c5)c(Cl)c4)c3c2)o1 [Lapatinib] (partner 2 µM)
Outline: as §1

[5] = compound: O=C(O)c1ccc2c(c1)nc(Nc1cccc(Cl)c1)c1ccncc12 [Silmitasertib] + CS(=O)(=O)N1CCN(Cc2cc3nc(-c4cccc5[nH]ncc45)nc(N4CCOCC4)c3s2)CC1 [Pictilisib] (partner 1 µM)
Outline: as §1

| Cell Line | relative viability ([1]; first compound 0.04 µM) | relative viability ([1]; first compound 1.265 µM) | relative viability ([1]; first compound 4 µM) | relative viability ([2]; first compound 0.04 µM) | relative viability ([2]; first compound 1.265 µM) | relative viability ([2]; first compound 4 µM) | relative viability ([3]; first compound 0.04 µM) | relative viability ([3]; first compound 1.265 µM) | relative viability ([3]; first compound 4 µM) | relative viability ([4]; first compound 0.04 µM) | relative viability ([4]; first compound 1.265 µM) | relative viability ([4]; first compound 4 µM) | relative viability ([5]; first compound 0.04 µM) | relative viability ([5]; first compound 1.265 µM) | relative viability ([5]; first compound 4 µM) | relative viability ([1]; first compound 0.4 µM) | relative viability ([2]; first compound 0.4 µM) | relative viability ([3]; first compound 0.4 µM) | relative viability ([4]; first compound 0.4 µM) | relative viability ([5]; first compound 0.4 µM) |
| --- | --- | --- | --- | --- | --- | --- | --- | --- | --- | --- | --- | --- | --- | --- | --- | --- | --- | --- | --- | --- |
| NCI-H1355 | 1.27 | 1.16 | 0.929 | 1.04 | 0.965 | 0.771 | 0.438 | 0.371 | 0.345 | 1.08 | 0.883 | 0.726 | 0.419 | 0.367 | 0.293 | – | – | – | – | – |
| COR-L 105 | 0.803 | 0.64 | 0.414 | 0.999 | 0.71 | 0.563 | 0.767 | 0.58 | 0.348 | 0.338 | 0.311 | 0.349 | 0.463 | 0.46 | 0.419 | 0.708 | 0.691 | 0.617 | 0.312 | 0.377 |
| NCI-H2228 | 1.46 | 0.912 | 1.13 | 0.981 | 0.586 | 1.16 | 0.541 | 0.583 | 0.494 | 1.16 | 1.03 | 1 | 0.505 | 0.367 | 0.305 | 0.92 | 0.579 | – | 0.944 | 0.312 |
| NCI-H838 | 1.15 | 0.759 | 0.66 | 1.36 | 1.29 | 0.929 | 0.456 | 0.425 | 0.274 | 1.28 | 0.753 | 0.465 | 0.463 | 0.434 | 0.359 | – | – | – | – | – |
| EMC-BAC-2 | 1.05 | 1.06 | 0.784 | 1.24 | 1.14 | 1.09 | 0.395 | 0.276 | 0.249 | 0.963 | 0.66 | 0.586 | 0.568 | 0.371 | 0.325 | 0.999 | 1.03 | 0.348 | 0.884 | 0.472 |
| LU99A | 1.22 | 0.899 | 0.438 | 0.911 | 0.622 | 0.546 | 0.276 | 0.314 | 0.255 | 1.04 | 0.613 | 0.588 | 0.325 | 0.297 | 0.291 | 1.18 | 0.735 | 0.293 | 1.03 | 0.331 |
| PC-3 [JPC-3] | 0.892 | 0.891 | 0.826 | 0.746 | 0.773 | 0.775 | 0.841 | 0.777 | 0.573 | 0.51 | 0.458 | 0.303 | 0.837 | 0.586 | 0.708 | 0.699 | 0.688 | 0.573 | 0.417 | 0.672 |
